Results published in PubChem BioAssay (NCI).
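Interpolation was linear, between the two tested concentrations surrounding the appropriate level; five concentrations were tested over 48 hours in 96-well plates. TGI: total growth inhibition.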

Tests used:
Test in all cases: NCI-60 cell line screen, 48 h
786-0 renal = system: 786-0 renal
A498 renal = system: A498 renal
A549 NSCLC = system: A549 NSCLC
ACHN renal = system: ACHN renal
CAKI-1 renal = system: CAKI-1 renal
CCRF-CEM leukemia = system: CCRF-CEM leukemia
COLO 205 colon = system: COLO 205 colon
DLD-1 colon = system: DLD-1 colon
DMS 114 small cell lung = system: DMS 114 small cell lung
DMS 273 small cell lung = system: DMS 273 small cell lung
EKVX NSCLC = system: EKVX NSCLC
HCC-2998 colon = system: HCC-2998 colon
HCT-116 colon = system: HCT-116 colon
HCT-15 colon = system: HCT-15 colon
HL-60(TB) leukemia = system: HL-60(TB) leukemia
HOP-18 NSCLC = system: HOP-18 NSCLC
HOP-62 NSCLC = system: HOP-62 NSCLC
HOP-92 NSCLC = system: HOP-92 NSCLC
HT29 colon = system: HT29 colon
IGROV1 ovarian = system: IGROV1 ovarian
K-562 leukemia = system: K-562 leukemia
KM12 colon = system: KM12 colon
KM20L2 colon = system: KM20L2 colon
LOX IMVI melanoma = system: LOX IMVI melanoma
LXFL 529 NSCLC = system: LXFL 529 NSCLC
M14 melanoma = system: M14 melanoma
M19-MEL melanoma = system: M19-MEL melanoma
MALME-3M melanoma = system: MALME-3M melanoma
MOLT-4 leukemia = system: MOLT-4 leukemia
NCI-H226 lung = system: NCI-H226 lung
NCI-H23 lung = system: NCI-H23 lung
NCI-H460 lung = system: NCI-H460 lung
NCI-H522 lung = system: NCI-H522 lung
OVCAR-3 ovarian = system: OVCAR-3 ovarian
OVCAR-4 ovarian = system: OVCAR-4 ovarian
OVCAR-5 ovarian = system: OVCAR-5 ovarian
OVCAR-8 ovarian = system: OVCAR-8 ovarian
RPMI-8226 leukemia = system: RPMI-8226 leukemia
RXF 393 renal = system: RXF 393 renal
SF-268 CNS = system: SF-268 CNS
SF-295 CNS = system: SF-295 CNS
SF-539 CNS = system: SF-539 CNS
SK-MEL-2 melanoma = system: SK-MEL-2 melanoma
SK-MEL-28 melanoma = system: SK-MEL-28 melanoma
SK-MEL-5 melanoma = system: SK-MEL-5 melanoma
SK-OV-3 ovarian = system: SK-OV-3 ovarian
SN12C renal = system: SN12C renal
SNB-19 CNS = system: SNB-19 CNS
SNB-75 CNS = system: SNB-75 CNS
SR leukemia = system: SR leukemia
SW-620 colon = system: SW-620 colon
TK-10 renal = system: TK-10 renal
U251 CNS = system: U251 CNS
UACC-257 melanoma = system: UACC-257 melanoma
UACC-62 melanoma = system: UACC-62 melanoma
UO-31 renal = system: UO-31 renal
XF 498 CNS = system: XF 498 CNS

Compound: O=C(CC(=O)n1nc(-c2ccccc2)c(N=Nc2ccccc2Cl)c1-c1ccccc1)Nc1ccc(Cl)cc1
- TGI (786-0 renal): > 83.4 µM
- TGI (A498 renal): > 100 µM
- TGI (A549 NSCLC): > 79.8 µM
- TGI (ACHN renal): > 100 µM
- TGI (CAKI-1 renal): > 100 µM
- TGI (CCRF-CEM leukemia): > 68.5 µM
- TGI (COLO 205 colon): > 64 µM
- TGI (DLD-1 colon): > 65.2 µM
- TGI (DMS 114 small cell lung): > 56.6 µM
- TGI (DMS 273 small cell lung): > 100 µM
- TGI (EKVX NSCLC): > 100 µM
- TGI (HCC-2998 colon): > 100 µM
- TGI (HCT-116 colon): > 55.8 µM
- TGI (HCT-15 colon): > 59.9 µM
- TGI (HL-60(TB) leukemia): > 60.5 µM
- TGI (HOP-18 NSCLC): > 100 µM
- TGI (HOP-62 NSCLC): > 100 µM
- TGI (HOP-92 NSCLC): > 100 µM
- TGI (HT29 colon): > 89.5 µM
- TGI (IGROV1 ovarian): > 100 µM
- TGI (K-562 leukemia): > 85.8 µM
- TGI (KM12 colon): > 100 µM
- TGI (KM20L2 colon): > 100 µM
- TGI (LOX IMVI melanoma): > 59.7 µM
- TGI (LXFL 529 NSCLC): > 100 µM
- TGI (M14 melanoma): > 100 µM
- TGI (M19-MEL melanoma): 45.7 µM
- TGI (MALME-3M melanoma): > 100 µM
- TGI (MOLT-4 leukemia): > 100 µM
- TGI (NCI-H226 lung): > 100 µM
- TGI (NCI-H23 lung): > 100 µM
- TGI (NCI-H460 lung): > 78.2 µM
- TGI (NCI-H522 lung): > 100 µM
- TGI (OVCAR-3 ovarian): > 100 µM
- TGI (OVCAR-4 ovarian): > 100 µM
- TGI (OVCAR-5 ovarian): > 100 µM
- TGI (OVCAR-8 ovarian): > 100 µM
- TGI (RPMI-8226 leukemia): > 66.1 µM
- TGI (RXF 393 renal): > 100 µM
- TGI (SF-268 CNS): > 100 µM
- TGI (SF-295 CNS): > 100 µM
- TGI (SF-539 CNS): > 100 µM
- TGI (SK-MEL-2 melanoma): > 100 µM
- TGI (SK-MEL-28 melanoma): > 100 µM
- TGI (SK-MEL-5 melanoma): > 100 µM
- TGI (SK-OV-3 ovarian): > 100 µM
- TGI (SN12C renal): > 100 µM
- TGI (SNB-19 CNS): > 100 µM
- TGI (SNB-75 CNS): > 100 µM
- TGI (SR leukemia): > 100 µM
- TGI (SW-620 colon): > 74 µM
- TGI (TK-10 renal): > 100 µM
- TGI (U251 CNS): > 55.6 µM
- TGI (UACC-257 melanoma): > 100 µM
- TGI (UACC-62 melanoma): > 100 µM
- TGI (UO-31 renal): > 100 µM
- TGI (XF 498 CNS): > 100 µM

Compound: O=C1CC[C@H](NC(=O)Cc2ccccc2)C(=O)N1
- TGI (786-0 renal): > 1250 µM
- TGI (A549 NSCLC): > 1250 µM
- TGI (ACHN renal): > 1250 µM
- TGI (CAKI-1 renal): > 1250 µM
- TGI (CCRF-CEM leukemia): > 1250 µM
- TGI (COLO 205 colon): > 1250 µM
- TGI (DLD-1 colon): > 1250 µM
- TGI (DMS 273 small cell lung): > 1250 µM
- TGI (EKVX NSCLC): > 1250 µM
- TGI (HCC-2998 colon): > 1250 µM
- TGI (HCT-116 colon): > 1250 µM
- TGI (HCT-15 colon): > 1250 µM
- TGI (HL-60(TB) leukemia): > 1250 µM
- TGI (HOP-18 NSCLC): > 1250 µM
- TGI (HOP-62 NSCLC): > 1250 µM
- TGI (HT29 colon): > 1250 µM
- TGI (IGROV1 ovarian): > 1250 µM
- TGI (K-562 leukemia): > 1250 µM
- TGI (KM12 colon): > 1250 µM
- TGI (KM20L2 colon): > 1250 µM
- TGI (LOX IMVI melanoma): > 1250 µM
- TGI (LXFL 529 NSCLC): > 1250 µM
- TGI (M14 melanoma): > 1250 µM
- TGI (M19-MEL melanoma): > 1250 µM
- TGI (MALME-3M melanoma): > 1250 µM
- TGI (MOLT-4 leukemia): > 1250 µM
- TGI (NCI-H226 lung): > 1250 µM
- TGI (NCI-H23 lung): > 1250 µM
- TGI (NCI-H460 lung): > 1250 µM
- TGI (NCI-H522 lung): > 1250 µM
- TGI (OVCAR-4 ovarian): > 1250 µM
- TGI (OVCAR-5 ovarian): > 1250 µM
- TGI (OVCAR-8 ovarian): > 1250 µM
- TGI (RPMI-8226 leukemia): > 1250 µM
- TGI (RXF 393 renal): > 1250 µM
- TGI (SF-268 CNS): > 1250 µM
- TGI (SF-295 CNS): > 1250 µM
- TGI (SF-539 CNS): > 1250 µM
- TGI (SK-MEL-2 melanoma): > 1250 µM
- TGI (SK-MEL-28 melanoma): > 1250 µM
- TGI (SK-OV-3 ovarian): > 1250 µM
- TGI (SN12C renal): > 1250 µM
- TGI (SNB-19 CNS): > 1250 µM
- TGI (SNB-75 CNS): > 1250 µM
- TGI (SR leukemia): > 1250 µM
- TGI (SW-620 colon): > 1250 µM
- TGI (TK-10 renal): > 1250 µM
- TGI (U251 CNS): > 1250 µM
- TGI (UACC-257 melanoma): > 1250 µM
- TGI (UACC-62 melanoma): > 1250 µM
- TGI (UO-31 renal): > 1250 µM
- TGI (XF 498 CNS): > 1250 µM
